Data reported in US20110230481A2, “DERIVATIVES OF TETRABROMOBENZIMIDAZOLE, A PROCESS FOR THE PREPARATION THEREOF, A PHARMACEUTICAL COMPOSITION COMPRISING THE SAME, A METHOD OF USING THE SAME, A METHOD FOR MODULATING OR REGULATING SERINE/THREONINE KINASES, AND SERINE/THREONINE KINASES MODULATING AGENT” (SELVITA S.A., priority 2009, published 2011).

Tests used:
Experiment in all cases: KINOMEscan Max
Assay type in all cases: binding
[1] = target: T1, CDK7 (Homo sapiens, UniProt P50613)
T1 construct: DNA tag (qPCR read-out)
Procedure: (§1) Kinase panel profiling was performed at Ambit Kinomescan (http://www.ambitbio.com/technology/) using the “KINOMEscan™ Max” assay platform, a high-throughput method for screening small molecule compounds against large numbers of human kinases. KINOMEscan™ is based on a competition binding assay that quantitatively measures the ability of a compound to compete with an immobilized, active-site directed ligand. The assay is performed by combining three components: DNA-tagged kinase; immobilized ligand; and a test compound. The ability of the test compound to compete with the immobilized ligand is measured via quantitative PCR of the DNA tag. For a description of Ambit's assay protocol, see Fabian et al. A small molecule-kinase interaction map for clinical kinase inhibitors. Nat. Biotechnol. 23, 329-336 (2005).

[2] = target: T2, PRKD3 (Homo sapiens, UniProt O94806)
T2 construct: DNA tag (qPCR read-out)
Procedure: as §1

[3] = target: T3, RSK3(Kin.Dom.2-C-terminal) (Homo sapiens, UniProt Q15349)
T3 construct: RSK3(Kin.Dom.2-C-terminal); purchased Ambit Kinomescan (contract screening)
Procedure: as §1

[4] = target: PCTK1 (Homo sapiens, UniProt Q00536)
Procedure: as §1

[5] = target: T4, KIT(D816V) (Homo sapiens, UniProt P10721, D816V)
T4 construct: purchased Ambit (KINOMEscan Max service)
T4 sequence (P10721 26-976 D816V): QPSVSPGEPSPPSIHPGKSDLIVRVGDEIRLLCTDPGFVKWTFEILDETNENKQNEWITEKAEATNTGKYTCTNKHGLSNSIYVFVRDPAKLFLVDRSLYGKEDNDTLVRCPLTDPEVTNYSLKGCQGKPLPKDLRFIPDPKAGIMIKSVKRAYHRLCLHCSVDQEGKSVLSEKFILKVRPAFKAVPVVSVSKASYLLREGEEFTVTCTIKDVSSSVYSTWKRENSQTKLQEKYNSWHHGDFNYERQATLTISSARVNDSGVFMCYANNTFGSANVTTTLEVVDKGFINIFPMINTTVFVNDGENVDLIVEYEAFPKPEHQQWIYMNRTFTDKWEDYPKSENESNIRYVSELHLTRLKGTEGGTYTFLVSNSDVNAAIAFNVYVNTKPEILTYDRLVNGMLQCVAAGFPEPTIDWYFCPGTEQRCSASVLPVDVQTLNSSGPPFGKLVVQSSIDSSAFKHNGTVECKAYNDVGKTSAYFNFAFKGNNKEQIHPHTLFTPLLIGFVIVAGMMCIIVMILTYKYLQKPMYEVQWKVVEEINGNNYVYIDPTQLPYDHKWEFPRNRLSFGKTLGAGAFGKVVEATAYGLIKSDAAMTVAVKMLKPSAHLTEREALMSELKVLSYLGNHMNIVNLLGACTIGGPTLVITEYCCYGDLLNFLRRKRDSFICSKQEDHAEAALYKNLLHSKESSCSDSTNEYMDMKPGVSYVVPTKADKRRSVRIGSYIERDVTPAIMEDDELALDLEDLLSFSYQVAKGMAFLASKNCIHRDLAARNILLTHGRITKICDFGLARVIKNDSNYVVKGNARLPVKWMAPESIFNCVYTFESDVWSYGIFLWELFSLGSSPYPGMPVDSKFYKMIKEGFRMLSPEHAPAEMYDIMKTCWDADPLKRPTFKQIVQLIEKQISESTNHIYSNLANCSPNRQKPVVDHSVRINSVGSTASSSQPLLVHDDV
Procedure: as §1

[6] = target: PHKG2 (Homo sapiens, UniProt P15735)
Procedure: as §1

[7] = target: ABL1(Q252H)-phosphorylated (Homo sapiens, UniProt P00519, Q252H)
Procedure: as §1

[8] = target: T5, ERK4 (Homo sapiens, UniProt P31152)
T5 construct: purchased Ambit Kinomescan (contract screening)
Procedure: as §1

[9] = target: T6, RSK2(Kin.Dom.1-N-terminal) (Homo sapiens, UniProt P51812)
T6 construct: RSK2(Kin.Dom.1-N-terminal); DNA tag (qPCR read-out)
Procedure: as §1

[10] = target: T7, GRK4 (Homo sapiens, UniProt P32298)
T7 construct: purchased Ambit Kinomescan (contract panel, KINOMEscan Max)
Procedure: as §1

[11] = target: T8, MYLK2 (Homo sapiens, UniProt Q9H1R3)
T8 construct: purchased Ambit (KINOMEscan Max service)
Procedure: as §1

[12] = target: CDK4-cyclinD3 (Homo sapiens, UniProt P11802)
Procedure: as §1

[13] = target: T9, DMPK (Homo sapiens, UniProt Q09013)
T9 construct: purchased Ambit (KINOMEscan Max panel service)
Procedure: as §1

[14] = target: T10, AXL (Homo sapiens, UniProt P30530)
T10 construct: DNA tag (qPCR read-out)
Procedure: as §1

[15] = target: MEK3 (Homo sapiens, UniProt P46734)
Procedure: as §1

[16] = target: T11, CDK2 (Homo sapiens, UniProt P24941); settings: 1 μM
T11 construct: purchased Ambit (KINOMEscan Max service)
Procedure: as §1

[17] = target: T12, EPHA8 (Homo sapiens, UniProt P29322)
T12 construct: purchased Ambit (KINOMEscan Max service)
T12 sequence (P29322 28-1005): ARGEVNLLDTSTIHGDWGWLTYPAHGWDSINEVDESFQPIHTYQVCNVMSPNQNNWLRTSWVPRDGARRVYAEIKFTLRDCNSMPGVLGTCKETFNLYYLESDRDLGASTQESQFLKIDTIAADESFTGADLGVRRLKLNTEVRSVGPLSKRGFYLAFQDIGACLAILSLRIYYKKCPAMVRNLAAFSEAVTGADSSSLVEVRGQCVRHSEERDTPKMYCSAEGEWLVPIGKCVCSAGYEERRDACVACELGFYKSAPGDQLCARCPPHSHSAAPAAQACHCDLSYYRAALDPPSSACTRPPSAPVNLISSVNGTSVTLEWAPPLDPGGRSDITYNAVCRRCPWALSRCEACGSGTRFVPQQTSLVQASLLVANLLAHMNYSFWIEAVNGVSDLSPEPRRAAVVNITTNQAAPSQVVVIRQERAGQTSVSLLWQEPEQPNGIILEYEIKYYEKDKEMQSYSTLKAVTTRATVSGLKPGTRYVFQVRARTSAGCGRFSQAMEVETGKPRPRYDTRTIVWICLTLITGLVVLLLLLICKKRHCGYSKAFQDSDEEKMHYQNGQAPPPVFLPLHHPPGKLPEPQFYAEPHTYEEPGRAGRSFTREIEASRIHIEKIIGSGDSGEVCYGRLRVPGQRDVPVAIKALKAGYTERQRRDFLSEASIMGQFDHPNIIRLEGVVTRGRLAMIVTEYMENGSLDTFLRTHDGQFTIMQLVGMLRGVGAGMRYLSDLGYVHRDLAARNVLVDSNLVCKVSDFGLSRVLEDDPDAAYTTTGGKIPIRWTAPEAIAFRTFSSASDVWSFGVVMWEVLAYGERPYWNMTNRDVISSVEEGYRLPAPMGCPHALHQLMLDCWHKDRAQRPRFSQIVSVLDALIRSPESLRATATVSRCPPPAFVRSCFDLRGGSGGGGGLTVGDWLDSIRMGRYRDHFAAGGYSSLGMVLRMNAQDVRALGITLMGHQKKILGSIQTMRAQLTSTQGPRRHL
Procedure: as §1

[18] = target: T13, AKT1 (Homo sapiens, UniProt P31749)
T13 construct: purchased Ambit (KINOMEscan Max service)
T13 sequence (P31749 whole entry): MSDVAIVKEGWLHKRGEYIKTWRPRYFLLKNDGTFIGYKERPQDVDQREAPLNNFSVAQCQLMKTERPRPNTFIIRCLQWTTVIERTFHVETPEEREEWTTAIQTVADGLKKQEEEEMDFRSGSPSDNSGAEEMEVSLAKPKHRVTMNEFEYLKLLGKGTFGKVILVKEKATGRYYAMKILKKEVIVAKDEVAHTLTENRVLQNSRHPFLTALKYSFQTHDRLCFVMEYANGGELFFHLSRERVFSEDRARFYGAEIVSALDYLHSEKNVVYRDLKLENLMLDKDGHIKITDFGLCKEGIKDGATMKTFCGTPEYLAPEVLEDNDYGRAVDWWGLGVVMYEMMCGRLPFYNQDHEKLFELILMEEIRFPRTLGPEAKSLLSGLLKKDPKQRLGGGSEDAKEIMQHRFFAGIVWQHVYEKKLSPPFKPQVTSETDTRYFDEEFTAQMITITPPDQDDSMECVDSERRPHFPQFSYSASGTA
Procedure: as §1

[19] = target: T14, CDKL5 (Homo sapiens, UniProt O76039)
T14 construct: DNA tag (qPCR read-out)
Procedure: as §1

[20] = target: T15, PAK2 (Homo sapiens, UniProt Q13177)
T15 construct: purchased Ambit (KINOMEscan Max service)
T15 sequence (Q13177 whole entry): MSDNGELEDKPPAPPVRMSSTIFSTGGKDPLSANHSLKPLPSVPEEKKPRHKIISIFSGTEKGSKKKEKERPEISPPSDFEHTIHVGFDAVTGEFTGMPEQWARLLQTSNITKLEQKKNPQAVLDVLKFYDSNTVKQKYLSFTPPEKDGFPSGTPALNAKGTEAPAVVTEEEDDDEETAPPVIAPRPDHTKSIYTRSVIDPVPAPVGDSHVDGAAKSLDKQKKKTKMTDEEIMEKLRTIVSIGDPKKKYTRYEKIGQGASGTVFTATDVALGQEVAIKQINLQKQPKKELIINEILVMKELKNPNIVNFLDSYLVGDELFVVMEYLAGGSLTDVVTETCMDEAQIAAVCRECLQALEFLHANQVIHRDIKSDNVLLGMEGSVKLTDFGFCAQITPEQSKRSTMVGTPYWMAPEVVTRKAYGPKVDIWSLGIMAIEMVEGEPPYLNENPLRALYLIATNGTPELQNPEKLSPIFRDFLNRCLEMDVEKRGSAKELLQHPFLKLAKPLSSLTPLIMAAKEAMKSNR
Procedure: as §1

[21] = target: T16, ULK1 (Homo sapiens, UniProt O75385); settings: 1 μM
T16 construct: DNA tag (qPCR read-out)
Procedure: as §1

[22] = target: T17, IGF1R (Homo sapiens, UniProt P08069)
T17 construct: purchased Ambit Kinomescan (contract panel, KINOMEscan Max)
Procedure: as §1

[23] = target: MARK2 (Homo sapiens, UniProt Q7KZI7)
Procedure: as §1

[24] = target: T18, SRC (Homo sapiens, UniProt P12931)
T18 construct: purchased Ambit Kinomescan (contract screening)
Procedure: as §1

[25] = target: T19, RPS6KA5(Kin.Dom.2-C-terminal) (Homo sapiens, UniProt O75582)
T19 construct: RPS6KA5(Kin.Dom.2-C-terminal); DNA tag (qPCR read-out)
T19 sequence (O75582 426-687 limits assumed): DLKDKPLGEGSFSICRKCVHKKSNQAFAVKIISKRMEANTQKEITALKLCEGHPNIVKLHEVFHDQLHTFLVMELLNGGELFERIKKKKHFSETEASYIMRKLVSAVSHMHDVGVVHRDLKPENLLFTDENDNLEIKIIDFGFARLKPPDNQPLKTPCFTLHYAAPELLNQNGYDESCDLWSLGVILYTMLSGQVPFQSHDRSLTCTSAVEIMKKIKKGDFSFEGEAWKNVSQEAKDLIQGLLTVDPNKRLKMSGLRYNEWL
Procedure: as §1

[26] = target: T20, CAMK2G (Homo sapiens, UniProt Q13555)
T20 construct: DNA tag (qPCR label); purchased Ambit Kinomescan (contract screening)
Procedure: as §1

[27] = target: MINK (Homo sapiens, UniProt Q8N4C8)
Procedure: as §1

[28] = target: T21, SRPK3 (Homo sapiens, UniProt Q9UPE1)
T21 construct: DNA tag (qPCR read-out)
T21 sequence (Q9UPE1 whole entry): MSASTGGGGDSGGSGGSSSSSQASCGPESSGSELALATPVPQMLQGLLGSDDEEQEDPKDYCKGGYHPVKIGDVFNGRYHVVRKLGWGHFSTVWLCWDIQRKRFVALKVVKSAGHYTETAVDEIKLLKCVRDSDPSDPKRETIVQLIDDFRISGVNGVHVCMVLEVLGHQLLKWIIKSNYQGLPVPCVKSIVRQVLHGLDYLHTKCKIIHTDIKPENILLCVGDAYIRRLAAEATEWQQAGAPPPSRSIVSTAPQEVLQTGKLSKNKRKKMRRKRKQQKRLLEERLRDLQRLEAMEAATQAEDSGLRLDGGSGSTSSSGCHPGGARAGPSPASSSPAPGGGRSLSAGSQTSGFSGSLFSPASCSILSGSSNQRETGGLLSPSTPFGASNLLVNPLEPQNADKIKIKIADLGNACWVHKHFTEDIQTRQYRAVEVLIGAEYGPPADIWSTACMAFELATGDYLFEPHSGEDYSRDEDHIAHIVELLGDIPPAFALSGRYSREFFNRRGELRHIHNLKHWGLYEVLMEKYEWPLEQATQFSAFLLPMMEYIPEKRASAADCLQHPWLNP
Procedure: as §1

[29] = target: T22, IKK-epsilon (Homo sapiens, UniProt Q14164)
T22 construct: purchased Ambit Kinomescan (contract panel, KINOMEscan Max)
T22 sequence (Q14164 whole entry): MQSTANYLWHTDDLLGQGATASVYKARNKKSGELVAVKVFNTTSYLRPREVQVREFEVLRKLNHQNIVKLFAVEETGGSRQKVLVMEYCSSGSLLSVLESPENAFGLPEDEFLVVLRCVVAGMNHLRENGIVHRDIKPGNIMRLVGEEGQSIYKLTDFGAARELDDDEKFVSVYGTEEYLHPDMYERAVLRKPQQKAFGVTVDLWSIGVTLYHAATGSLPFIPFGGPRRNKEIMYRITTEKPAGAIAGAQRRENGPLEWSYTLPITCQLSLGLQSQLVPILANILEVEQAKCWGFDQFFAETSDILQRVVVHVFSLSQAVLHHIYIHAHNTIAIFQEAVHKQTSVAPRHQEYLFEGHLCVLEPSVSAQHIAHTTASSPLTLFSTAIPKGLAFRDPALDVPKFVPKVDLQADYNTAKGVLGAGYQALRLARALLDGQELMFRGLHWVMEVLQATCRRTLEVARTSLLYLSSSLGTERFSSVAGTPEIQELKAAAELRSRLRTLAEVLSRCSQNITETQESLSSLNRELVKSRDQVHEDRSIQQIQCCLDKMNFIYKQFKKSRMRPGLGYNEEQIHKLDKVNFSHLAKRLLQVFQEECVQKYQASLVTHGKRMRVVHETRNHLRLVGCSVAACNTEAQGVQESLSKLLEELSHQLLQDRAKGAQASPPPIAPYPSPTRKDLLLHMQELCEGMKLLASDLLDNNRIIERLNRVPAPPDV
Procedure: as §1

[30] = target: FGFR2 (Homo sapiens, UniProt P21802)
Procedure: as §1

[31] = target: ZAK (Homo sapiens, UniProt Q9NYL2)
Procedure: as §1

[32] = target: T23, NEK7 (Homo sapiens, UniProt Q8TDX7)
T23 construct: DNA tag (qPCR read-out)
Procedure: as §1

[33] = target: MEK2 (Homo sapiens, UniProt P36507)
Procedure: as §1

[34] = target: PRKR (Homo sapiens, UniProt P19525); settings: 1 μM
Sequence of PRKR (P19525 whole entry): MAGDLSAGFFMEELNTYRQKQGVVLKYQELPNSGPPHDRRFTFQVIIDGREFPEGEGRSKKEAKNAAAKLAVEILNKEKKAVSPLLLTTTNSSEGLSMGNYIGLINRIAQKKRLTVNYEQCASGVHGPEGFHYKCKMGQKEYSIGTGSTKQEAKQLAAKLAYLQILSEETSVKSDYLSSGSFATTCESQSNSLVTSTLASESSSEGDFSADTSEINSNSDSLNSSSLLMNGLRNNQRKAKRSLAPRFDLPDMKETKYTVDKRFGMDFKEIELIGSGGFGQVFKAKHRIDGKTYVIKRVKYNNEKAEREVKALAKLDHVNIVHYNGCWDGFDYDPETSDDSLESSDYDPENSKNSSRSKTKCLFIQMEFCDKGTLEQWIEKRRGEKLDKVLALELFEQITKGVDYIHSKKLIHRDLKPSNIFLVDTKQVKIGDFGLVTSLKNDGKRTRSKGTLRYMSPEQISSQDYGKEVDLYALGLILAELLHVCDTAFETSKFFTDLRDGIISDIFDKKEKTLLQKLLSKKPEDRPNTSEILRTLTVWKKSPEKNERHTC
Procedure: as §1

NCCCNc1nc2c(Br)c(Br)c(Br)c(Br)c2[nH]1 [Compound 11, N-(3-aminopropyl)-4,5,6,7-tetrabromo-1H-benzo[d]imidazol-2-amine]
remaining binding at 1 µM [1]: 27%
remaining binding at 1 µM [2]: 27%
remaining binding at 1 µM [3]: 97%
remaining binding at 1 µM [4]: 100%
remaining binding at 1 µM [5]: 60%
remaining binding at 1 µM [6]: 75%
remaining binding at 1 µM [7]: 100%
remaining binding at 1 µM [8]: 98%
remaining binding at 1 µM [9]: 100%
remaining binding at 1 µM [10]: 100%
remaining binding at 1 µM [11]: 86%
remaining binding at 1 µM [12]: 92%
remaining binding at 1 µM [13]: 100%
remaining binding at 1 µM [14]: 90%
remaining binding at 1 µM [15]: 78%
% binding [16]: 71%
remaining binding at 1 µM [17]: 86%
remaining binding at 1 µM [18]: 70%
remaining binding at 1 µM [19]: 25%
remaining binding at 1 µM [20]: 64%
% binding [21]: 30%
remaining binding at 1 µM [22]: 100%
remaining binding at 1 µM [23]: 94%
remaining binding at 1 µM [24]: 97%
remaining binding at 1 µM [25]: 100%
remaining binding at 1 µM [26]: 100%
remaining binding at 1 µM [27]: 100%
remaining binding at 1 µM [28]: 100%
remaining binding at 1 µM [29]: 100%
remaining binding at 1 µM [30]: 77%
remaining binding at 1 µM [31]: 98%
remaining binding at 1 µM [32]: 86%
remaining binding at 1 µM [33]: 100%
% binding [34]: 91%
